The data set is described as follows: Stability of Src peptide substrate 1 in prostate cell lysates. The settings on record: for % Remaining Parent / remaining at 1 h: M-PER lysis buffer, no ATP/Mg2+, 1 h; for remaining at 1 h: read-out: % Remaining Parent. The format is in vitro ADME, human. How it is done:
Peptides commonly suffer protease-catalyzed degradation in cells as well as in cell lysates. Consequently, prior to examining Src kinase-catalyzed phosphorylation of peptide 1 with lysates, we monitored the stability of the peptide as a function of time. Cells were lysed using Pierce’s M-PER mammalian lysis buffer and, in the absence of ATP and Mg^2+ (i.e. no observable kinase activity), the lysate was added to peptide 1. Only approximately 10% of the peptide is degraded after 1 h (Table S1). Since the phosphorylation rate is measured within 10 min of incubation (Fig. S1), the peptide is sufficiently stable for our needs.
Capillary electrophoresis was performed on a ProteomeLab PA800 system equipped with a laser-induced fluorescence (LIF) detector (Beckman Coulter). The LIF was excited using the 488 nm argon laser. A fused-silica capillary (30/20 cm total/effective length, 50/360 µm inner/outer diameter) was used for separation (Polymicro Technologies). Prior to installation, capillaries were pretreated with 0.1 M NaOH for 12 h, distilled water for 1 h, 0.1 M HCl for 6 h and water again for 12 h. The samples were hydrodynamically injected and separated at 25°C at a constant voltage of 12 kV. The running buffer was 100 mM Borate/100 mM SDS buffer at pH 7.7. Before each run, the capillary was rinsed with 0.1 M NaOH, distilled water, and then the running buffer for 2 min under 20 psi pressure. Data was collected and analyzed using 32 Karat Software (Version 8.0, Beckman Coulter).
All cell lines were acquired from ATCC and grown in a humidified incubator at 37°C with 5% CO2. PZ-HPV-7, RWPE1, WPE1-NA22, WPE1-NB14, WPE1-NB11 and WPE1-NB26 cell lines were cultured in Keratinocyte Serum Free Medium (K-SFM) supplied with 0.05 mg/mL bovine pituitary extract (BPE) and 5 ng/mL epidermal growth factor (EGF) (all provided as a kit from Invitrogen), and 1% penicillin/streptomycin (P/S; Invitrogen). CWR22Rv1 cells were cultured in RPMI-1640 medium (Invitrogen) supplemented with 10% heat-inactivated fetal bovine serum (HI-FBS, Invitrogen) and 1% P/S. DU145 cells were cultured in Eagle’s Minimum Essential Medium (EMEM, ATCC) supplemented with 10% HI-FBS and 1% P/S. PC3 cells were cultured in F-12K medium (ATCC) supplemented with 10% HI-FBS and 1% P/S. Cell lysates were prepared as follows: confluent cells were first trypsinized and collected into 15 mL tubes in the presence of FBS-containing buffer or medium and then washed (3X) with ice cold DPBS buffer. The cells were lysed using M-PER mammalian protein extraction reagent mixed with 5/100 (v/v) Halt protease and phosphatase inhibitor cocktail EDTA-free (Thermo Fisher Scientific) for 10 min at 4°C. Cell debris was removed by centrifuging samples at 14,000 x g for 10 min at 4°C. The total protein concentrations were determined using Dc Protein assay (Bio-Rad).
Cell Line % Remaining Parent

Where two headings read alike, the source gives them in different places. Where a SMILES comes first, the peptide text is derived from it. [ ]: non-standard residue; d: D form. The star is where a group is joined. 5FAM = O=C1OC2(c3ccc(O)cc3Oc3cc(O)ccc32)c2ccc(C(=O)*)cc21; Orn = NCCC[C@H](N)C(=O)O

Usually fraction remaining stands for the share of the starting amount still present when the sample was taken. For `CC[C@H](C)[C@H](NC(=O)[C@H](CCC(=O)O)NC(=O)[C@H](CCC(=O)O)NC(=O)[C@H](CCC(=O)O)NC(=O)[C@H](CCCNC(C)=O)NC(=O)c1ccc2c(c1)C(=O)OC21c2ccc(O)cc2Oc2cc(O)ccc21)C(=O)N[C@@H](Cc1ccc(O)cc1)C(=O)NCC(=O)N[C@@H](CCC(=O)O)C(=O)N[C@@H](Cc1ccccc1)C(=O)N[C@@H](CCCNC(C)=O)C(N)=O` [peptide 1] (5FAM-[Orn](Ac)EEEIYGEF[Orn](Ac)-NH2), the “% Remaining Parent” value by setting is: (DU145 cell lysate) 92.9 ± 0.5%; (PC3 cell lysate) 89.2 ± 2.2%; (WPE1-NA22 cell lysate) 92.4 ± 0.8%; (WPE1-NB14 cell lysate) 91.4 ± 1.2%; (WPE1-NB26 cell lysate) 91.0 ± 1.5%. Where the note is “human, prostate cell lysates, prostate cell lysate (M-PER mammalian lysis buffer), absence of ATP and Mg2+, after 1 h, read-out: peptide degraded”, the metabolised at 1 h was approximately 10%. The fraction remaining at 1 h (human, PZ-HPV-7 cell lysate) stood at 92.4 ± 0.2%; the share remaining at 1 h (human, RWPE1 cell lysate) is 91 ± 0.6%; the amount remaining at 1 h (human, WPE1-NB11 cell lysate) came to 89.8 ± 1.5%.
